The test concerns TAC-PH mice. In words: Transverse aortic constriction (TAC) induced PH mouse model, BALB/cJ (Example 12). Type of test: in vivo. Particulars: day 42, relative to TAC PBS. The text has this: The effects of an ActRIIA-mFc fusion polypeptide (SEQ ID NO: 56) was examined in a mouse model of left ventricular systolic dysfunction (also referred to as HErEF) of pulmonary hypertension (PH) and valvular heart disease. In this model, BALB/cJ mice underwent transverse aortic constriction (TAC) to induce left heart failure, and right heart and pulmonary remodeling. See, e.g., Xiong P Y. et al. Hypertension 2018, 71(1):34-55 and Chen Y. et al. Hypertension 2012, 59(6):1170-1178.
Forty-four BALB/cJ male mice (10 wks old) underwent TAC surgery and fourteen age-matched animals underwent a mock surgical procedure (Sham) at day 0. Two weeks after the surgery, TAC-PH mice were randomized into three groups. i) fourteen mice were injected subcutaneously with vehicle control (phosphate buffered saline (PBS)), twice weekly for 4 weeks starting from day 14 after surgery, “TAC PBS”; ii) fifteen mice were injected subcutaneously with ActRIIA-mFc at a dose of 3 mg/kg twice weekly for 4 weeks starting from day 14 after TAC surgery, “TAC ActRIIA-mFc 3 mpk”; and iii) fifteen mice were injected subcutaneously with ActRIIA-mFc at a dose of 10 mg/kg twice weekly for 4 weeks starting from day 14 after TAC surgery, “TAC ActRIIA-mFc 10 mpk.” At the end of the study, echocardiography and pressure-volume catheter were performed to measure left and right ventricular remodeling and functional changes before animals were euthanized for heart and lung collection. Hearts and lungs of each mouse were weighed, fixed in 10% formalin, embedded in paraffin, and sectioned for Masson's trichrome stain to assess fibrosis.
Prior to euthanasia, in vivo cardiac function was assessed by transthoracic echocardiography (Acuson P300, 18 MHz transducer; Siemens) in conscious mice. From left ventricle (LV) short axis view, M-mode echocardiogram was acquired to measure left ventricle end diastolic diameter (LVEDD), and left ventricle end systolic diameter (LVESD). Fractional shortening (FS) was calculated from the end-diastolic diameter (EDD) and end-systolic diameter (ESD) using the following equation: FS=100%×[(EDD−ESD)/EDD]. Early diastolic filling peak velocity (E), early diastolic mitral annular velocity (E′), and isovolumetric relaxation time (IVRT) were measured from the medial or septal wall at the mitral valve level from tissue Doppler image. LV diastolic function was assessed by measuring the E/E′ ratio and IVRT. Three to five beats were averaged for each mouse measurement. RV free wall thickness (RVFWT) was measured using M-mode in a modified parasternal long-axis view through the aortic valve. Pulmonary artery acceleration time (PAAT) was measured as the time from start to peak velocity of blood flow in the lumen of the main pulmonary artery distal to the pulmonary valve as obtained from the pulse-wave doppler recording.
On day 42, mice were anesthetized by an intraperitoneal injection of ketamine/xylazine (100/5 mg/kg) to evaluate left and right ventricular function by Millar pressure-volume conductance catheter. The respiration was supported by a small animal ventilator.
Thoracotomy was made through 4-5 intercostal space, and the heart was exposed. A pressure-volume catheter (1.0-Fr, PVR-1035, Millar Instruments, Houston, TX, USA) was inserted into the left ventricle and right ventricle from the apex. Ventricular pressure and volume were calculated with LabChart 7 software. Ejection fraction was derived. Afterwards, animals were euthanized for heart and lung collection. Cardiac hypertrophy was measured by heart weight (HW) normalized by tibial length (TL). Left ventricle (LV), right ventricle (RV) and lung of each mouse were separated, fixed in 10% formalin, embedded in paraffin, and sectioned for Masson's trichrome stain to assess fibrosis. Serum and urine samples were collected at the end of the study.

Take “ActRIIA-mFc: ActRIIA-mFc fusion polypeptide (SEQ ID NO: 56); extracellular domain fused to murine IgG2a Fc domain with a linker”: for the setting “3 mpk or 10 mpk s.c. twice weekly for 4 weeks from day 14 after TAC, FIG. 45”, the LV ejection fraction entry is on record as “restored LV ejection fraction”. Further, the “cardiac hypertrophy, heart weight/tibia length (HW/TL)” value (3 mpk or 10 mpk s.c. twice weekly for 4 weeks from day 14 after TAC, FIG. 46) is given as “significantly reduced cardiac hypertrophy”. Also, for the setting “3 mpk or 10 mpk s.c. twice weekly for 4 weeks from day 14 after TAC, FIG. 48”, the IVRT result is “reduced IVRT”. For the same substance, for the setting “3 mpk or 10 mpk s.c. twice weekly for 4 weeks from day 14 after TAC, FIG. 49”, the RVSP entry is reported as “reduced RVSP”. Where the note is “3 mpk or 10 mpk s.c. twice weekly for 4 weeks from day 14 after TAC, FIG. 50”, the RVFWT entry was “significantly reduced elevated RVFWT”. Further, where the note is “3 mpk or 10 mpk s.c. twice weekly for 4 weeks from day 14 after TAC, FIG. 51”, the PAAT entry is listed as “increased PAAT”. In addition, the LV fibrosis result (3 mpk or 10 mpk s.c. twice weekly for 4 weeks from day 14 after TAC, FIG. 52) is on record as “significantly reduced”. In addition, the RV fibrosis result (3 mpk or 10 mpk s.c. twice weekly for 4 weeks from day 14 after TAC, FIG. 53) is on record as “significantly reduced”. Besides, the lung fibrosis entry (3 mpk or 10 mpk s.c. twice weekly for 4 weeks from day 14 after TAC, FIG. 54) is “significantly reduced lung fibrosis”. The “E/E′ ratio” value (3 mpk s.c. twice weekly for 4 weeks from day 14 after TAC, FIG. 47) is recorded as “reduced E/E′ ratio at 3 mpk”.
